Results on five substances are retold here after patent US6136784A, “Amylin agonist pharmaceutical compositions containing insulin” (Amylin Pharmaceuticals, Inc., priority 1998, dated 2000).

Broadly, the EC50 is the midpoint of the concentration-response curve. A higher EC50 goes with a need for much substance.

Where two headings read alike, the source gives them in different places. Positions of bridges follow the written chain, without caps; N, C: chain ends. No end group written: not given here.

In data set [1] the test system is Harlan Sprague Dawley (non-diabetic) rats. Briefly: Phenol red gastric emptying assay, normal rats. As to conditions: sc bolus 5 minutes before gavage, ±0.19 log units. The class given is in vivo, rat. From the text: (§1) Methods of measuring the rate of gastric emptying are disclosed in, for example, Young et al., Diabetolocia, 38(6):642-648 (1995). In a phenol red method, which is described below, conscious rats receive by gavage an acoloric gel containing methyl cellulose and a phenol red indicator. Twenty minutes after gavage, animals are anesthetized using halothane, the stomach exposed and clamped at the pyloric and lower esophageal sphincters, removed and opened into an alkaline solution. Stomach content may be derived from the intensity of the phenol red in the alkaline solution, measured by absorbance at a wavelength of 560 nm. […] Tritium in the plasma separated from tail blood is collected at various timepoints and detected in a beta counter. […]
(§2) Gastric emptying was measured using a modification (Plourde et al., Life Sci. 53:857-862 (1993)) of the original method of Scarpignato et al. (Arch. Int. Pharmacodyn. Ther. 246:286-295 (1980)). […] Stomach content was derived from the intensity of the phenol red in the alkaline solution, measured by absorbance at a wavelength of 560 nm. […] In other experiments, particulate gastric contents were centrifuged to clear the solution for absorbance measurements. Where the diluted gastric contents remained turbid, the spectroscopic absorbance due to phenol red was derived as the difference between that present in alkaline vs acetified diluent. […]

Data set [2] relates to Harlan Sprague Dawley rats. Briefly: Tritiated glucose gastric emptying assay. The format is in vivo, rat. As to conditions: sc 1 minute before gavage of tritiated glucose. The text has this: Methods of measuring the rate of gastric emptying are disclosed in, for example, Young et al., Diabetolocia, 38(6):642-648 (1995). In a phenol red method, which is described below, conscious rats receive by gavage an acoloric gel containing methyl cellulose and a phenol red indicator. Twenty minutes after gavage, animals are anesthetized using halothane, the stomach exposed and clamped at the pyloric and lower esophageal sphincters, removed and opened into an alkaline solution. Stomach content may be derived from the intensity of the phenol red in the alkaline solution, measured by absorbance at a wavelength of 560 nm. In a tritiated glucose method, which is described in Example 9 below, conscious rats are gavaged with tritiated glucose in water. The rats are gently restrained by the tail, the tip of which is anesthetized using lidocaine. Tritium in the plasma separated from tail blood is collected at various timepoints and detected in a beta counter. Test compounds are normally administered about one minute before gavage.
Conscious, non-fasted, Harlan Sprague Dawley rats were restrained by the tail, the tip of which was anesthetized using 2% lidocaine. Tritium in plasma separated from tail blood collected 0, 15, 30, 60, 90 and 120 minutes after gavage was detected in a beta counter. […]

Another data set has as its system diabetic BB rats. Briefly: Phenol red gastric emptying assay, diabetic rats. The format is in vivo, rat. As to conditions: sc bolus 5 minutes before gavage, ±0.18 log units.
Description: as §1, §2

For data set [3] the following is noted: in vivo, sc; cited from earlier work.
The test system of data set [4] is insulin-stimulated glycogen synthesis in soleus muscle. As to the kind of experiment: Soleus muscle assay (inhibition of insulin-stimulated glycogen synthesis). As to conditions: 7.1 nM insulin. The format is cell-based, rat. On the procedure: Assays of biological activity of amylin agonists in the soleus muscle may be performed using previously described methods (Leighton, B. and Cooper, Nature, 335:632-635 (1988); Cooper, et al., Proc. Natl. Acad. Sci. USA 85:7763-7766 (1988)), in which amylin agonist activity may be assessed by measuring the inhibition of insulin-stimulated glycogen synthesis. The soleus muscle assay is also described below.
Determination of amylin agonist activity of compounds was carried out using the soleus muscle assay as follows. Male Harlan Sprague-Dawley rats of approximately 200 g mass were used in order to maintain mass of the split soleus muscle less than 40 mg. The animals were fasted for 4 hours prior to sacrifice by decapitation. The skin was stripped from the lower limb which was then pinned out on corkboard. The tendo achilles was cut just above os calcis and m. gastrocnemius reflected out from the posterior aspect of the tibia. M. soleus, a small 15-20 mm long, 0.5 mm thick flat muscle on the bone surface of m. gastrocnemius was then stripped clear and the perimysium cleaned off using fine scissors and forceps. […]
^14 C-glycogen determination was performed in a 7 mL scintillation vial. […] The remaining glycogen was redissolved in 1 mL water and 4 mL scintillation fluid and counted for ^14 C. […]

For data set [5] the following is noted: cited from earlier work.
The conditions of data set [6]: intravenous infusion; cited from earlier work.
For data set [7] the following is noted: 30-microgram doses four times per day, 14 days; p=0.003; cited from earlier work.
The conditions of data set [8]: 28 days, cited from earlier work.
The conditions of data set [9]: self injected three times per day, 14 days, plus usual insulin; cited from earlier work.

On to rat amylin, for which the ED50 for inhibition of gastric emptying turned out to be 0.43 µg in data set [1] and 2.2 µg in the data set with diabetic BB rats. For the same substance, in data set [2], the ED50 derived from the logistic fit (plasma tritium AUC over 30 minutes) stood at 0.35 µg.
In the case of “soluble insulin: soluble insulin given by subcutaneous injection”, in [3], the “Duration of action (lasts for)” value is 4 to 6 h and the “Time to absorption following subcutaneous injection” value is 30 min.
Regarding “^2,7 Cyclo-[^2 Asp,^7 Lys]-h-Amylin (KDNTATKATQRLANFLVHSSNNFGAILSSTNVGSNTY; lactam 2-7; ends not checked; UniProt P10997 34-70, looked up, variant C2D C7K) [compound 2]”, the EC50 in data set [4] came to 6.62 nM.
Turning to ^25,28,29 Pro-h-Amylin [compound 12], the Tolerability entry in [5] (30-microgram dose) is listed as “well tolerated”. In addition, the “Lowering of fructosamine compared to placebo” value in [5] (30-microgram doses four times per day, 28 days, p=0.003) is 33 µmol/L. Besides, the “Lowering of 24-hour average blood-glucose concentrations compared to placebo” value in data set [5] (30-microgram doses four times per day, 28 days, p=0.009) was 31 mg/dL. Further, the Post-meal blood-glucose concentrations result in [6] is “significantly reduced”. Besides, the “Reduction of average blood-glucose concentrations over a 24-hour observation period compared to placebo” value in data set [7] was 35 mg/dL. The Lowering of fructosamine in data set [8] (30 micrograms four times a day, p=0.029) is 17.5 µmol/L; in data set [8] (60 micrograms four times a day, p=0.001), 22.6 µmol/L; in data set [8] (60 micrograms three times a day, p=0.003) it was 24.1 µmol/L. Besides, in data set [9], the “Blood-glucose concentrations after a test meal compared to placebo” value is on record as “statistically significant reduction”.
^25,28 Pro-h-Amylin [compound 6]: in data set [4], the EC50 is 13.2 nM.
